# Measurements as given in US20240327459A1, “PEPTIDE FRAGMENTS FOR TREATMENT OF DIABETES” (Follicum AB, priority 2018, published 2024).
# “Also recorded” adds a separate entry of the source.
# Test system: INS-1 β-cells
# Assay: Insulin secretion from INS-1 cells, insulin ELISA (Examples 8-11, 20)
# Type: cell-based, rat
# Method: Materials and methods: Rat INS-1 β-cells (passages 60-70) were cultured at 37° C. and 5% CO2 in cRPMI media (RPMI 1640 supplemented with 10% fetal bovine serum, 50 IU/mL penicillin, 50 mg/L streptomycin, 10 mM HEPES, 2 mM L-glutamine, 1 mM sodium pyruvate, and 50 μM beta-mercaptoethanol) unless otherwise stated. INS-1 cells were seeded in 96-well plates (2×10^3 cells/well) in cRPMI medium and following overnight incubation, the cells were washed in PBS before pre-incubation for 120 min at 37° C. in Krebs-Ringer bicarbonate buffer, pH 7.4, supplemented with 10 mM HEPES, 0.1% bovine serum albumin and 2.8 mM glucose. Following pre-incubation, the buffer was exchanged with fresh Krebs-Ringer buffer as described above and supplemented with specific glucose concentrations and peptides for the individual experiments as described below. Immediately after 60 minutes incubation at 37° C., an aliquot of the buffer was removed and frozen for subsequent insulin ELIZA assay.
# Insulin release from INS-1 cells were measured following exposure to increasing concentrations of FOL-014 and compared with the stimulatory effect of GLP-1 and untreated control during high glucose concentration (16.7 mM). […] At 6 nM or higher, FOL-014 triggered insulin release within the same range as 100 nM GLP-1. At concentrations ranging from 0.6-60 nM, insulin secretion increased in a linear fashion in relation to increasing FOL-014 concentrations.
# Insulin release from INS-1 cells was measured following exposure to 60 nM FOL-014 at increasing concentrations of glucose. In untreated control samples, elevated glucose concentrations increased the insulin secretion at 11.1 mM glucose or higher. […] (FIG. 6).
# Insulin secretion from INS-1 cells was measured following exposure to FOL-005, FOL-014, GLP-1 or combinations of those, expressed as percentage of untreated control. […] The experiments were performed in the presence of 16.7 mM glucose (FIG. 7).
# Novel peptide analogues, derived from either FOL-005 or FOL-014 were tested concerning their ability to induce insulin secretion in two separate INS-1 cell lines in the presence of 16.7 mM glucose. FOL-005, FOL-014 and GLP-1 as well as a high glucose (16.7 mM) and a low glucose (2.8 mM) control (not shown) was included in each experiment and the peptide concentration was 100 nM. In order to correct for the variance between experiments, all values were normalized to, and expressed as percentage of the average value of the high glucose control in the individual experiments. The analogues were subsequently ranked according to performance (FIGS. 11A and 11B).
# Insulin secretion from INS-1 cells was measured following exposure to FOL-056, GLP-1 or a combination of those, expressed as percentage of untreated control. […] The experiments were performed in the presence of 16.7 mM glucose (FIG. 15).
sequence,measurement,setting,value
"KPLAEIDSIELSYGIK (MISC_FEATURE - peptide, FOL-014)",insulin secretion at increasing glucose concentrations,"60 nM peptide, glucose 5.5 mM or higher, vs untreated control cells",increased significantly in a glucose dependent fashion already from 5.5 mM glucose; also recorded: significantly higher
same,concentration range in which insulin secretion increased in a linear fashion,16.7 mM glucose,0.6 to 60 nM
same,concentration triggering insulin release within the same range as 100 nM GLP-1,16.7 mM glucose,≥ 6 nM
same,insulin release,"all concentrations tested, 16.7 mM glucose, vs untreated control",elicited significantly higher insulin release as compared with the untreated control; also recorded: significant increase in insulin secretion for all concentrations tested
same,insulin secretion,"concentrations ≥600 nM, 16.7 mM glucose",did not increase the insulin secretion; also recorded: less pronounced effect on insulin secretion
